Measured values: PubChem BioAssay AID1963847 (Molecular Pharmacology Branch, DTP, NCI, 2024)

Test system: 415267-285-R-J2-PDC complex spheroid viability
Assay: Anticancer human tumor 415267-285-R-J2-PDC patient-derived breast carcinoma cell line growth inhibition [POLQ]
Settings: for IC50: curve of first compound; for viability, T/C: stronger effect = lower value
How it was run: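 Three-cell-type spheroids modelling solid tumor plus stroma served as the readout system; POL inhibitors were tested individually and in combination, concentration ranges set by clinical Cmax where known.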

[1] = second compound 0.0316 µM, first compound 0.0316 µM
[2] = second compound 0.0316 µM, first compound 0.1 µM
[3] = second compound 0.0316 µM, first compound 0.316 µM
[4] = second compound 0.0316 µM, first compound 1 µM
[5] = second compound 0.1 µM, first compound 0.0316 µM
[6] = second compound 0.1 µM, first compound 0.1 µM
[7] = second compound 0.1 µM, first compound 0.316 µM
[8] = second compound 0.1 µM, first compound 1 µM
[9] = second compound 0.316 µM, first compound 0.0316 µM
[10] = second compound 0.316 µM, first compound 0.1 µM
[11] = second compound 0.316 µM, first compound 0.316 µM
[12] = second compound 0.316 µM, first compound 1 µM
[13] = second compound 1 µM, first compound 0.0316 µM
[14] = second compound 1 µM, first compound 0.1 µM
[15] = second compound 1 µM, first compound 0.316 µM
[16] = second compound 1 µM, first compound 1 µM
[17] = second compound 3.16 µM, first compound 0.0316 µM
[18] = second compound 3.16 µM, first compound 0.1 µM
[19] = second compound 3.16 µM, first compound 0.316 µM
[20] = second compound 3.16 µM, first compound 1 µM
[21] = second compound 10 µM, first compound 0.0316 µM
[22] = second compound 10 µM, first compound 0.1 µM
[23] = second compound 10 µM, first compound 0.316 µM
[24] = second compound 10 µM, first compound 1 µM
[25] = second compound 0.0316 µM, first compound 0.00316 µM
[26] = second compound 0.0316 µM, first compound 0.01 µM
[27] = second compound 0.1 µM, first compound 0.00316 µM
[28] = second compound 0.1 µM, first compound 0.01 µM
[29] = second compound 0.316 µM, first compound 0.00316 µM
[30] = second compound 0.316 µM, first compound 0.01 µM
[31] = second compound 1 µM, first compound 0.00316 µM
[32] = second compound 1 µM, first compound 0.01 µM
[33] = second compound 3.16 µM, first compound 0.00316 µM
[34] = second compound 3.16 µM, first compound 0.01 µM
[35] = second compound 10 µM, first compound 0.00316 µM
[36] = second compound 10 µM, first compound 0.01 µM
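Further: spheroids exposed to compounds for one week before readout.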
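Wherever viability, T/C is given: luminescence used as stand-in measure of viable cells; 100% = DMSO vehicle control viability.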

## Nc1ccn(C2OC(CO)C(O)C2(F)F)c(=O)n1 (stereo unspecified) + Nc1ccc(C#CCN(C(=O)Cc2ncc(C(F)(F)F)cc2C(F)(F)F)c2ccc(F)cc2)nn1
Second compound 0.0316 µM
  IC50: < 31.6 nM
Second compound 0.1 µM
  IC50: < 31.6 nM
Second compound 0.316 µM
  IC50: < 31.6 nM
Second compound 1 µM
  IC50: < 31.6 nM
Second compound 3.16 µM
  IC50: < 31.6 nM
Second compound 10 µM
  IC50: < 31.6 nM
[1]
  viability, T/C: 31.7%
[2]
  viability, T/C: 6.95%
[3]
  viability, T/C: 5.45%
[4]
  viability, T/C: 4.21%
Second compound 0.0316 µM, first compound 3.16 µM
  viability, T/C: 5.5%
Second compound 0.0316 µM, first compound 10 µM
  viability, T/C: 4.63%
[5]
  viability, T/C: 33.3%
[6]
  viability, T/C: 7.84%
[7]
  viability, T/C: 5.21%
[8]
  viability, T/C: 4.26%
Second compound 0.1 µM, first compound 3.16 µM
  viability, T/C: 4.99%
Second compound 0.1 µM, first compound 10 µM
  viability, T/C: 4.24%
[9]
  viability, T/C: 42.2%
[10]
  viability, T/C: 6.2%
[11]
  viability, T/C: 4.82%
[12]
  viability, T/C: 3.94%
Second compound 0.316 µM, first compound 3.16 µM
  viability, T/C: 6.45%
Second compound 0.316 µM, first compound 10 µM
  viability, T/C: 4.74%
[13]
  viability, T/C: 25.8%
[14]
  viability, T/C: 6.29%
[15]
  viability, T/C: 5.24%
[16]
  viability, T/C: 5.68%
Second compound 1 µM, first compound 3.16 µM
  viability, T/C: 5.32%
Second compound 1 µM, first compound 10 µM
  viability, T/C: 5.07%
[17]
  viability, T/C: 17.7%
[18]
  viability, T/C: 6.56%
[19]
  viability, T/C: 5.45%
[20]
  viability, T/C: 5.13%
Second compound 3.16 µM, first compound 3.16 µM
  viability, T/C: 5.35%
Second compound 3.16 µM, first compound 10 µM
  viability, T/C: 5.11%
[21]
  viability, T/C: 14.4%
[22]
  viability, T/C: 6.3%
[23]
  viability, T/C: 5.2%
[24]
  viability, T/C: 4.36%
Second compound 10 µM, first compound 3.16 µM
  viability, T/C: 4.56%
Second compound 10 µM, first compound 10 µM
  viability, T/C: 4.89%

## CCc1c2c(nc3ccc(O)cc13)-c1cc3c(c(=O)n1C2)COC(=O)[C@]3(O)CC + COC1C(OC(N)=O)C(O)C(Oc2ccc3c(O)c(NC(=O)c4ccc(O)c(CC=C(C)C)c4)c(=O)oc3c2C)OC1(C)C
Second compound 0.0316 µM
  IC50: < 3.16 nM
Second compound 0.1 µM
  IC50: < 3.16 nM
Second compound 0.316 µM
  IC50: < 3.16 nM
Second compound 1 µM
  IC50: < 3.16 nM
Second compound 3.16 µM
  IC50: < 3.16 nM
Second compound 10 µM
  IC50: < 3.16 nM
[25]
  viability, T/C: 32.7%
[26]
  viability, T/C: 10%
[1]
  viability, T/C: 6.54%
[2]
  viability, T/C: 4.82%
[3]
  viability, T/C: 3.41%
[4]
  viability, T/C: 1.27%
[27]
  viability, T/C: 38.3%
[28]
  viability, T/C: 11%
[5]
  viability, T/C: 7.02%
[6]
  viability, T/C: 5.02%
[7]
  viability, T/C: 3.21%
[8]
  viability, T/C: 1.32%
[29]
  viability, T/C: 36.5%
[30]
  viability, T/C: 11%
[9]
  viability, T/C: 9.37%
[10]
  viability, T/C: 4.84%
[11]
  viability, T/C: 5.41%
[12]
  viability, T/C: 1.19%
[31]
  viability, T/C: 43.8%
[32]
  viability, T/C: 9.67%
[13]
  viability, T/C: 7.66%
[14]
  viability, T/C: 4.1%
[15]
  viability, T/C: 4.05%
[16]
  viability, T/C: 1.96%
[33]
  viability, T/C: 39.8%
[34]
  viability, T/C: 9.67%
[17]
  viability, T/C: 6.74%
[18]
  viability, T/C: 4.81%
[19]
  viability, T/C: 3.35%
[20]
  viability, T/C: 1.51%
[35]
  viability, T/C: 40.3%
[36]
  viability, T/C: 10.1%
[21]
  viability, T/C: 7.22%
[22]
  viability, T/C: 4.24%
[23]
  viability, T/C: 3.48%
[24]
  viability, T/C: 1.63%

## C=CCn1c(=O)c2cnc(Nc3ccc(N4CCN(C)CC4)cc3)nc2n1-c1cccc(C(C)(C)O)n1 + COC1C(OC(N)=O)C(O)C(Oc2ccc3c(O)c(NC(=O)c4ccc(O)c(CC=C(C)C)c4)c(=O)oc3c2C)OC1(C)C
Second compound 0.0316 µM
  IC50: 347 nM
Second compound 0.1 µM
  IC50: 269 nM
Second compound 0.316 µM
  IC50: 262 nM
Second compound 1 µM
  IC50: 269 nM
Second compound 3.16 µM
  IC50: 249 nM
Second compound 10 µM
  IC50: 267 nM
[25]
  viability, T/C: 106%
[26]
  viability, T/C: 96.1%
[1]
  viability, T/C: 105%
[2]
  viability, T/C: 101%
[3]
  viability, T/C: 53.7%
[4]
  viability, T/C: 7.91%
[27]
  viability, T/C: 96%
[28]
  viability, T/C: 95.3%
[5]
  viability, T/C: 101%
[6]
  viability, T/C: 99.1%
[7]
  viability, T/C: 42.1%
[8]
  viability, T/C: 7.89%
[29]
  viability, T/C: 114%
[30]
  viability, T/C: 110%
[9]
  viability, T/C: 100%
[10]
  viability, T/C: 116%
[11]
  viability, T/C: 38.1%
[12]
  viability, T/C: 7.25%
[31]
  viability, T/C: 105%
[32]
  viability, T/C: 119%
[13]
  viability, T/C: 95.8%
[14]
  viability, T/C: 89.9%
[15]
  viability, T/C: 42.9%
[16]
  viability, T/C: 7.39%
[33]
  viability, T/C: 111%
[34]
  viability, T/C: 101%
[17]
  viability, T/C: 103%
[18]
  viability, T/C: 95.9%
[19]
  viability, T/C: 38.1%
[20]
  viability, T/C: 8.1%
[35]
  viability, T/C: 112%
[36]
  viability, T/C: 93.9%
[21]
  viability, T/C: 106%
[22]
  viability, T/C: 97.9%
[23]
  viability, T/C: 41.7%
[24]
  viability, T/C: 9.2%
